Read-outs that look alike come from different tables or passages of the source.
System: cell lines from the Cancer Cell Line Encyclopedia (CCLE)
Test: High-throughput cell viability assay, CCLE cell line panel (n = 356)
Format: cell-based, human
Details: Homo sapiens
Description: Cell lines were partitioned into sensitive and insensitive groups based on compound potency (IC50). […] All other cell lines were obtained from ATCC (American Type Culture Collection), DSMZ (Deutsche Sammlung von Mikroorganismen und Zellkulturen), and HSRRB (Health Science Research Resources Bank) and cultured in RPMI or Dulbecco's modified Eagle's medium plus 10% FBS (Invitrogen, Carlsbad, CA) at 37°C, 5% CO2.

SMILES: COc1cc2c(cc1OC(C)C)[C@H](c1ccc(Cl)cc1)N(c1ccc(N(C)C[C@H]3CC[C@H](N4CCNC(=O)C4)CC3)cc1)C(=O)C2 [NVP-CFC218]
- IC50 (PC-3, TP53 MUT): > 8 µM
- IC50 (PC-14, PC-14, TP53 MUT): > 8 µM
- IC50 (PE/CA-PJ34 (clone C12), TP53 MUT): > 8 µM
- IC50 (PE/CA-PJ49, TP53 WT): > 8 µM
- IC50 (PK-1, TP53 MUT): > 8 µM
- IC50 (PK-45H, TP53 WT): > 8 µM
- IC50 (PL-21, PL-21, TP53 MUT): > 8 µM
- IC50 (PSN1, PSN1, TP53 MUT): > 8 µM
- IC50 (PaTu 8902, PA-TU-8902, TP53 MUT): > 8 µM
- IC50 (Panc 04.03, Panc 04.03, TP53 MUT): > 8 µM
- IC50 (QGP-1, QGP-1, TP53 WT): > 8 µM
- IC50 (RCM-1, RCM-1, TP53 MUT): > 8 µM
- IC50 (RERF-GC-1B, TP53 MUT): > 8 µM
- IC50 (RERF-LC-AI, TP53 WT): > 8 µM
- IC50 (RERF-LC-MS, TP53 MUT): > 8 µM
- IC50 (RKO, TP53 WT): 6.44 µM
- IC50 (RPMI 8402, RPMI-8402, TP53 MUT): > 8 µM
- IC50 (RT-112, RT-112, TP53 MUT): > 8 µM
- IC50 (Raji, TP53 MUT): > 8 µM
- IC50 (Reh, TP53 WT): 2.63 µM
- IC50 (S-117, S-117, TP53 MUT): > 8 µM
- IC50 (SBC-5, SBC-5, TP53 MUT): > 8 µM
- IC50 (SCC-4, SCC-4, TP53 MUT): > 8 µM
- IC50 (SCC-9, SCC-9, TP53 MUT): > 8 µM
- IC50 (SCC-25, SCC-25, TP53 MUT): > 8 µM
- IC50 (SCaBER, read-out: NVP- CFC218 IC50 (µM), cell line SCaBER, urinary_tract, TP53 MUT): > 8 µM
- IC50 (SF-295, SF-295, TP53 MUT): > 8 µM
- IC50 (SH-10-TC, TP53 MUT): > 8 µM
- IC50 (SHP77, SHP-77, TP53 MUT): > 8 µM
- IC50 (SJRH30, SJRH30, TP53 MUT): > 8 µM
- IC50 (SK-BR-3, SK-BR-3, TP53 MUT): > 8 µM
- IC50 (SK-HEP1, read-out: NVP- CFC218 IC50 (µM), cell line SK-HEP-1, liver, TP53 WT): > 8 µM
- IC50 (SK-LMS-1, SK-LMS-1, TP53 MUT): > 8 µM
- IC50 (SK-LU-1, SK-LU-1, TP53 MUT): > 8 µM
- IC50 (SK-MEL-5, read-out: NVP- CFC218 IC50 (µM), cell line SK-MEL-5, skin, TP53 WT): > 8 µM
- IC50 (SK-MEL-24, read-out: NVP- CFC218 IC50 (µM), cell line SK-MEL-24, skin, TP53 WT): > 8 µM
- IC50 (SK-MEL-30, SK-MEL-30, TP53 MUT): > 8 µM
- IC50 (SK-MES-1, SK-MES-1, TP53 MUT): > 8 µM
- IC50 (SK-N-AS, TP53 WT): > 8 µM
- IC50 (SK-N-FI, TP53 MUT): > 8 µM
- IC50 (SK-OV-3, SK-OV-3, TP53 MUT): > 8 µM
- IC50 (SNU-182, SNU-182, TP53 MUT): > 8 µM
- IC50 (SNU-423, read-out: NVP- CFC218 IC50 (µM), cell line SNU-423, liver, TP53 MUT): > 8 µM
- IC50 (SNU-475, SNU-475, TP53 MUT): > 8 µM
- IC50 (SU-DHL-4, SU-DHL-4, TP53 MUT): > 8 µM
- IC50 (SU-DHL-8, SU-DHL-8, TP53 MUT): > 8 µM
- IC50 (SUP-M2, SUP-M2, TP53 WT): 1.01 µM
- IC50 (SW480, SW480, TP53 MUT): > 8 µM
- IC50 (SW579, SW579, TP53 MUT): > 8 µM
- IC50 (SW780, read-out: NVP- CFC218 IC50 (µM), cell line SW 780, urinary_tract, TP53 WT): > 8 µM
- IC50 (SW900, SW 900, TP53 MUT): > 8 µM
- IC50 (SW1271, SW 1271, TP53 MUT): > 8 µM
- IC50 (SW1353, SW 1353, TP53 MUT): 4.91 µM
- IC50 (SW1417, SW1417, TP53 MUT): > 8 µM
- IC50 (SW1573, read-out: NVP- CFC218 IC50 (µM), cell line SW 1573, lung, TP53 WT): > 8 µM
- IC50 (SW1783, SW 1783, TP53 MUT): > 8 µM
- IC50 (SW1990, SW 1990, TP53 MUT): > 8 µM
- IC50 (SW-403, read-out: NVP- CFC218 IC50 (µM), cell line SW403, large_intestine, TP53 MUT): > 8 µM
- IC50 (T98G, TP53 MUT): > 8 µM
- IC50 (TE 617.T, TP53 WT): 2.91 µM
- IC50 (TE-1, TP53 MUT): > 8 µM
- IC50 (TE-5, TP53 MUT): > 8 µM
- IC50 (TE-11, read-out: NVP- CFC218 IC50 (µM), cell line TE-11, oesophagus, TP53 MUT): > 8 µM
- IC50 (TOV21G, TOV-21G, TP53 WT): 5.41 µM
- IC50 (TT2609-C02, TP53 MUT): > 8 µM
- IC50 (U-87 MG, TP53 WT): > 8 µM
- IC50 (U-937, U-937, TP53 MUT): > 8 µM
- IC50 (UMUC3, read-out: NVP- CFC218 IC50 (µM), cell line UM-UC-3, urinary_tract, TP53 MUT): > 8 µM
- IC50 (VMRC-RCZ, TP53 WT): > 8 µM
- IC50 (WM 266-4, WM-266-4, TP53 WT): 1.46 µM
- IC50 (WM983B, WM-983B, TP53 MUT): > 8 µM
- IC50 (WM-115, WM-115, TP53 WT): 3.38 µM
- IC50 (WSUDLCL2, WSU-DLCL2, TP53 MUT): > 8 µM
- IC50 (YKG-1, YKG1, TP53 MUT): > 8 µM
- IC50 (read-out: NVP- CFC218 IC50 (µM), cell line BICR 31, upper_aerodigestive_tract, TP53 MUT): > 8 µM
- IC50 (read-out: NVP- CFC218 IC50 (µM), cell line C3A, liver, TP53 WT): > 8 µM
- IC50 (read-out: NVP- CFC218 IC50 (µM), cell line C32, skin, TP53 WT): > 8 µM
- IC50 (read-out: NVP- CFC218 IC50 (µM), cell line CCK-81, large_intestine, TP53 MUT): > 8 µM
- IC50 (read-out: NVP- CFC218 IC50 (µM), cell line ES-2, ovary, TP53 MUT): > 8 µM
- IC50 (read-out: NVP- CFC218 IC50 (µM), cell line HEC-108, endometrium, TP53 MUT): > 8 µM
- IC50 (read-out: NVP- CFC218 IC50 (µM), cell line HEC-265, endometrium, TP53 WT): > 8 µM
- IC50 (read-out: NVP- CFC218 IC50 (µM), cell line Hs 618.T, lung, TP53 WT): > 8 µM
- IC50 (read-out: NVP- CFC218 IC50 (µM), cell line Hs 888.T, bone, TP53 WT): > 8 µM
- IC50 (read-out: NVP- CFC218 IC50 (µM), cell line Hs 944.T, skin, TP53 WT): > 8 µM
- IC50 (read-out: NVP- CFC218 IC50 (µM), cell line JHOS-2, ovary, TP53 MUT): > 8 µM
